In ChEMBL document CHEMBL4002640, “Discovery of MK-1832, a Kv1.5 inhibitor with improved selectivity and pharmacokinetics” (Bioorg Med Chem Lett, 2017):
pIC50: −log10 of the molar value.

What was measured:
[1] = biological target: T1, Potassium voltage-gated channel subfamily A member 5 (Homo sapiens, UniProt P22460); experiment: Inhibition of Kv1.5 (unknown origin)
KCNQ1/KCNE1 (IKs) = KCNQ1/KCNE1 (IKs) (Homo sapiens, UniProt P15382+P51787); experiment: Inhibition of human KCNQ1/KCNE1 expressed in HEK293 cells assessed as reduction in slowly activating delayed rectifier cardiac potassium current at 10 uM by patch clamp electrophysiology method; assay type: cell-based; conditions: HEK293 cells expressing human KCNQ1/KCNE1
[2] = biological target: T2, Voltage-gated inwardly rectifying potassium channel KCNH2 (Homo sapiens, UniProt Q12809); experiment: Displacement of [3H]-MK499 from human ERG IKr channel expressed in HEK293 cell membranes
[3] = Drug metabolism in human hepatocytes assessed as oxidation of the A/B ring nitrogens up to 3 hrs by mass spectrometry; assay type: ADME, cell-based, Hepatocyte
[4] = Drug metabolism in human hepatocytes assessed as oxidation of the ethane at the center up to 3 hrs by mass spectrometry; assay type: ADME, cell-based, Hepatocyte
[5] = Metabolic stability in human hepatocytes up to 3 hrs by mass spectrometry; assay type: ADME, cell-based, Hepatocyte
Homo sapiens = species on record: Homo sapiens; experiment: Substrate activity at human P-gp assessed as efflux ratio
[6] = biological target: T1, Potassium voltage-gated channel subfamily A member 5; experiment: Inhibition of Kv1.5 mediated ultra-rapid delayed rectifier current Ikur in human atrial myocytes by voltage-patch clamp electrophysiology method; assay type: cell-based
[7] = biological target: Voltage-gated potassium channel, IKs; KCNQ1(Kv7.1)/KCNE1(MinK) (Homo sapiens, UniProt P15382+P51787); experiment: Inhibition of human KCNQ1/KCNE1 expressed in HEK293 cells assessed as reduction in slowly activating delayed rectifier cardiac potassium current by patch clamp electrophysiology method; assay type: cell-based
[8] = biological target: T2, Voltage-gated inwardly rectifying potassium channel KCNH2; experiment: Inhibition of human ERG expressed in CHOK1 cells assessed as reduction in rapidly activating delayed rectifier cardiac potassium current by whole-cell voltage-patch clamp assay; assay type: cell-based
[9] = biological target: T3, A-type voltage-gated potassium channel KCND3 (Homo sapiens, UniProt Q9UK17); experiment: Inhibition of Kv4.3 (unknown origin) assessed as reduction in transient outward potassium current by high throughput clamp method
T3 sequence (Q9UK17 whole entry): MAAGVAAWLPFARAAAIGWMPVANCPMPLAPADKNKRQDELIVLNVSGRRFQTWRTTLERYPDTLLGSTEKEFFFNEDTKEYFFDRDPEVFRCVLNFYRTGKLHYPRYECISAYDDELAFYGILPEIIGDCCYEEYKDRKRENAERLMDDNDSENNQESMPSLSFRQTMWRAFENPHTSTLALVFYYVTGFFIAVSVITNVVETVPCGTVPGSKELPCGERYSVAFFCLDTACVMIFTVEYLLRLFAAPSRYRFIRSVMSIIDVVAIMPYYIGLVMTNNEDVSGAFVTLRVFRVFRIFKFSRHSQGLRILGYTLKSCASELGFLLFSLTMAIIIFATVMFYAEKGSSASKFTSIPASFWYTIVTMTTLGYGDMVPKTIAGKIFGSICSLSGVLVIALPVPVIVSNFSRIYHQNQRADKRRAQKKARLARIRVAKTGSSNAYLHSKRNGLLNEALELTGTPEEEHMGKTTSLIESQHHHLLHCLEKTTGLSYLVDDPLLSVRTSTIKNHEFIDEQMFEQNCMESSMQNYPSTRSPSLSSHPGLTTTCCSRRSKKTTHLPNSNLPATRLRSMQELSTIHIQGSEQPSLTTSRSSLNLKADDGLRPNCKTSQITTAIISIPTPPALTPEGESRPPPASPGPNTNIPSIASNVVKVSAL

[10] = biological target: Sodium channel protein type 5 subunit alpha (Homo sapiens, UniProt Q14524); experiment: Inhibition of SCN5a (unknown origin) assessed as reduction in sodium current at 10 uM by voltage/ion probe reader method
Canis familiaris [11] = experiment: Anti-atrial fibrillation activity in iv dosed anesthetized Mongrel dog assessed as increase in atrial refractory period at 400 ms of basic cycle length administered as 60 mins infusion measured up to 60 mins by electrophysiology method; assay type: functional, Canis lupus familiaris
Canis familiaris [12] = experiment: Effect on ventricular refractory period in iv dosed anesthetized Mongrel dog assessed as threshold change in ventricular refractory period at 400 ms of basic cycle length administered as 60 mins infusion measured up to 60 mins by electrophysiology method; assay type: ADME, organism-based, Canis lupus familiaris; conditions: in vivo, 1 h
[13] = Selectivity index, ratio of IC50 for human KCNQ1/KCNE1 IKs channel expressed in HEK293 cells to IC50 for Kv1.5 IKur channel in human atrial myocytes
Canis familiaris [14] = experiment: Selectivity index, ratio of compound effect for anti-atrial fibrillation activity in iv dosed anesthetized Mongrel dog assessed as increase in atrial refractory period to compound effect on ventricular refractory period in iv dosed anesthetized Mongrel dog; set-up: species or system Canis lupus familiaris

KCNQ1/KCNE1 (IKs), sequence (P51787 whole entry): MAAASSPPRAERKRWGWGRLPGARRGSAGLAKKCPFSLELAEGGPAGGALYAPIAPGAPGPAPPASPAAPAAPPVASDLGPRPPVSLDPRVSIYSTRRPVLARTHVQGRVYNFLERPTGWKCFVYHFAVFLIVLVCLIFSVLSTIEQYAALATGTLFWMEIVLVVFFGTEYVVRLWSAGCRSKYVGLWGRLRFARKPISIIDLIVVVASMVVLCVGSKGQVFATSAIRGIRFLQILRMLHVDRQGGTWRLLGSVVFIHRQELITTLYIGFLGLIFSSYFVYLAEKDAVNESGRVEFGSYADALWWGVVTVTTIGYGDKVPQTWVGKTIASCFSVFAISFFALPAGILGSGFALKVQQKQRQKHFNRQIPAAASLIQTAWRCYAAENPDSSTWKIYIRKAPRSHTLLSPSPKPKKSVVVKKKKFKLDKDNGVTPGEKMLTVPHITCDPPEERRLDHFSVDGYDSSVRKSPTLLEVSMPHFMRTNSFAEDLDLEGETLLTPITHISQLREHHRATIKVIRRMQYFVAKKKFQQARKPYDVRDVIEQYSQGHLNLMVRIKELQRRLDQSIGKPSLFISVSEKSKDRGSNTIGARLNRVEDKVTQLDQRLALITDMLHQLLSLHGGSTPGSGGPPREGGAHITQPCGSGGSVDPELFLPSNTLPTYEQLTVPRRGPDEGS
T1 sequence (P22460 whole entry): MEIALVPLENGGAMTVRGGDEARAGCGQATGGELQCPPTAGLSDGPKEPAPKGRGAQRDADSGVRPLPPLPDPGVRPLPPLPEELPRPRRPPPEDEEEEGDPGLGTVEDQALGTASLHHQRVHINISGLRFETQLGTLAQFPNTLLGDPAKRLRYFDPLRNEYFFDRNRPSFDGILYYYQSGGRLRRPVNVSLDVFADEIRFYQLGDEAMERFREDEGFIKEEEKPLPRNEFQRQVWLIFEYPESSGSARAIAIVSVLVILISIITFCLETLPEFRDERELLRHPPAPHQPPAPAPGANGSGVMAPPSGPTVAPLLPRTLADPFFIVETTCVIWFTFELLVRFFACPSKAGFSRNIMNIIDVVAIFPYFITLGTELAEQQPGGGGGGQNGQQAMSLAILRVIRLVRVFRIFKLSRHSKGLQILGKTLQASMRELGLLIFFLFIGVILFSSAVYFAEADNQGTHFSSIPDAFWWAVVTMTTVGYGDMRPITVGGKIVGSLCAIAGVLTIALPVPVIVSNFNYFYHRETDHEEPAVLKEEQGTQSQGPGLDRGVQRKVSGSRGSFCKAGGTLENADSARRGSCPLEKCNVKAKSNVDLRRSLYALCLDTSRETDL
T2 sequence (Q12809 whole entry): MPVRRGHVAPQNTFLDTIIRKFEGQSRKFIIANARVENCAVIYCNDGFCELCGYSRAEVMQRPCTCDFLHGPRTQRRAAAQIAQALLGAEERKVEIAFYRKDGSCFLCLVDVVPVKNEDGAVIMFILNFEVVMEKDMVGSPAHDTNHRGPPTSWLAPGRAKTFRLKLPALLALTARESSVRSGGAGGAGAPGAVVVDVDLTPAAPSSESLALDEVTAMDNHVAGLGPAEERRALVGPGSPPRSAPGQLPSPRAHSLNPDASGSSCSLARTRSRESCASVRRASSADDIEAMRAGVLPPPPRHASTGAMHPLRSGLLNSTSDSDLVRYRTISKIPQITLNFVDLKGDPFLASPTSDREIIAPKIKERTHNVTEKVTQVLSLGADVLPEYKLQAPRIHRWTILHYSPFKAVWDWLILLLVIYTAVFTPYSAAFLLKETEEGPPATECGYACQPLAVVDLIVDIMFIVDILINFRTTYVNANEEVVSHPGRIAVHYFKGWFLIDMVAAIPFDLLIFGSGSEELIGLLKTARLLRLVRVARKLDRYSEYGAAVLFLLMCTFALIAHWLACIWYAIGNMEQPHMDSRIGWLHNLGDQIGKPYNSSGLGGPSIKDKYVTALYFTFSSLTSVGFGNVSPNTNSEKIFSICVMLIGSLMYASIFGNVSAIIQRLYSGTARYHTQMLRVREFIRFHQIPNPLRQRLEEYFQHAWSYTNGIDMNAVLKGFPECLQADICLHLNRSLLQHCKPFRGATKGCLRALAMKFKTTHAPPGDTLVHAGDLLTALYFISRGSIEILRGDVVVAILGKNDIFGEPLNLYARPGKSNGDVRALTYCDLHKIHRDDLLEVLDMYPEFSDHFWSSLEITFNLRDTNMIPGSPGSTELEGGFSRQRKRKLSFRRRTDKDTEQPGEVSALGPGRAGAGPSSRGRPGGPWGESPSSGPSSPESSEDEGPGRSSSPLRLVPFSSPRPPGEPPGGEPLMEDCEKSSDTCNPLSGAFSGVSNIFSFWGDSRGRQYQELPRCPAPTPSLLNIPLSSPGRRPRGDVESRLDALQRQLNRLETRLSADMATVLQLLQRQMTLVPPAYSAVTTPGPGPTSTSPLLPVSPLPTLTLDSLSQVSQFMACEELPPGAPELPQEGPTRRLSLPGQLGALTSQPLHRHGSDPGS
Voltage-gated potassium channel, IKs; KCNQ1(Kv7.1)/KCNE1(MinK), sequence (P51787 whole entry): as the sequence (P51787 whole entry) above

| Structure (SMILES) | pIC50 [1] | inhibition at 10 µM (KCNQ1/KCNE1 (IKs)) | pIC50 [2] | other results |
| --- | --- | --- | --- | --- |
| CN(C)C(=O)c1cccc(-c2ncccc2CC(c2ccnc(N)n2)c2cccnc2F)c1 (racemic) | 6.79 | 61% | < 4.52 |  |
| Cc1cc(F)ccc1-c1ccccc1C(C#N)C(c1cccnc1)c1cccnc1 (stereo unspecified) | 6.86 | 9.2% |  |  |
| CN(C)C(=O)c1cccc(-c2ccc(F)cc2CC(c2cccnc2)c2cccnc2)c1 |  |  |  | Drug metabolism [3]: Metabolite_Detected; Drug metabolism [4]: Metabolite_Detected; Stability [5]: Unstable |
| OC(Cc1cccnc1-c1cc(Cl)cc(Cl)c1)(c1cccnc1)c1cccnc1 | 7.08 | 10% | < 4.52 | Ratio (Homo sapiens): 6.8 |
| FC(F)(F)Oc1cccc(-c2ncccc2CC(c2cccnc2)c2cccnc2)c1 | 7.48 | 67% | 4.90 |  |
| OC(Cc1cccnc1-c1cccc(C(F)(F)F)c1)(c1cccnc1F)c1cccnc1F | 6.71 | 16% |  | Stability [5]: Stable |
| N#Cc1cccc(-c2cc(F)ccc2CC(c2cccnc2)c2cccnc2)c1 | 6.87 | 47% | 4.99 | Ratio (Homo sapiens): 0.9 |
| CS(=O)(=O)Nc1cccc(-c2cc(F)ccc2CC(c2cccnc2)c2cccnc2)n1 | 5.80 |  |  |  |
| OC(c1cccnc1-c1ccccc1Cl)C(c1cccnc1)c1cccnc1 (stereo unspecified) |  | -0.5% | < 4.52 | Ratio (Homo sapiens): 28 |
| Fc1ccc(CC(c2cccnc2)c2cccnc2)c(-c2cn[nH]c2)c1 | < 5.00 |  |  |  |
| OC(c1cccnc1-c1cccc(Cl)c1)C(c1cccnc1)c1cccnc1 (racemic) | 6.55 | 4.1% | < 4.52 |  |
| Clc1cccc(-c2ncccc2CC(c2cccnc2)c2cccnc2)c1 | 7.52 | 36% | < 4.52 |  |
| Clc1ccccc1-c1ncccc1CC(c1cccnc1)c1cccnc1Cl (stereo unspecified) | 7.59 | 80% |  |  |
| Nc1cccc(C(c2cccnc2)C(O)c2cccnc2-c2cc(Cl)cc(Cl)c2)n1 (mixture of isomers) | 6.82 | 20% | < 4.52 | Ratio (Homo sapiens): 3.4 |
| CN(c1cccnc1)c1ncccc1CC(c1cccnc1)c1cccnc1 | 7.05 | 5% | < 4.52 |  |
| OC(c1cccnc1-c1cccc(Cl)c1Cl)C(c1cccnc1)c1cccnc1 (racemic) | 6.96 | -3.3% |  | Ratio (Homo sapiens): 17 |
| COc1cccc(-c2ncccc2CC(c2cccnc2)c2cccnc2)c1 | 7.39 | 15% |  |  |
| Fc1ccc(CC(c2cccnc2)c2cccnc2)c(-c2cccc(C(F)(F)F)c2)c1 | 5.89 |  | 5.65 |  |

| Structure (SMILES) | pIC50 [1] | inhibition at 10 µM (KCNQ1/KCNE1 (IKs)) | pIC50 [2] | other results |
| --- | --- | --- | --- | --- |
| CN(C)C(=O)c1cccc(-c2ccccc2CC(c2cccnc2)c2cccnc2)c1 | 7.19 | 26% |  |  |
| c1cncc(C(Cc2ccccc2-c2cncc3ccccc23)c2cccnc2)c1 | 6.88 | 77% | 4.92 |  |
| Nc1cccc(C(Cc2cccnc2-c2cccc(C(F)(F)F)c2)c2cccnc2)n1 (stereo unspecified) | 7.25 | 42% |  |  |
| FC(F)(F)c1cccc(-c2ncccc2CC(c2cccnc2)c2cccnc2)c1 | 7.08 | 23% | < 4.52 |  |
| Fc1ccc(CC(c2cccnc2)c2cccnc2)c(C2CC2)c1 | < 5.00 |  |  |  |
| N#Cc1cccc(-c2cccc(Cl)c2CC(c2cccnc2)c2cccnc2)c1 | 5.54 |  | 5.59 |  |
| OC(c1cccnc1-c1cc(Cl)cc(Cl)c1)C(c1cccnc1)c1ccccn1 (mixture of isomers) | 6.63 |  | < 4.52 | Ratio (Homo sapiens): 1.1 |
| Nc1cccc(C(Cc2cccnc2-c2cc(Cl)cc(Cl)c2)c2cccnc2)n1 (stereo unspecified) | 7.21 | 57% | 4.99 |  |
| CS(=O)(=O)Nc1cccc([C@H](c2ccc(F)cc2)C(c2cccnc2)c2cccnc2)n1 | 8.05 |  | < 4.52 | pIC50 [6]: 7.96; pIC50 [7]: 6.10; pIC50 [8]: 3.96; pIC50 [9]: 5.64; inhibition (INH) [10]: Not Active; Stability [5]: Stable; EC10 (Canis familiaris [11]): 31 nM; Activity (Canis familiaris [12]): 6 to 7 µM; Ratio IC50 [13]: 70; Selectivity Index (Canis familiaris [14]): 210 |
| OC(c1cccnc1-c1cccc(Cl)c1)C(c1cccnc1)c1ncco1 (mixture of isomers) | 6.56 | 16% |  |  |
| c1cncc(-c2ccccc2CC(c2cccnc2)c2cccnc2)c1 | 7.19 | 22% |  |  |
| O[C@@H](c1cccnc1-c1cccc(C(F)(F)F)c1)C(c1cccnc1)c1cccnc1 | 6.54 | -14% | < 4.52 | Ratio (Homo sapiens): 7 |
| c1ccc(-c2ccccc2CC(c2cccnc2)c2cccnc2)cc1 | 5.86 |  | 5.12 |  |
| c1cncc(C(Cc2ccccc2-c2ccncc2)c2cccnc2)c1 | 6.35 |  | 4.66 |  |
| Clc1ccccc1-c1ncccc1CC(c1cccnc1)c1cccnc1 | 7.64 | 24% | < 4.52 |  |
| CC(=O)NC(c1ccccc1-c1cc(Cl)cc(Cl)c1)C(c1cccnc1)c1cccnc1 (stereo unspecified) | 6.83 | 0.1% | < 4.52 | Ratio (Homo sapiens): 51 |
| CS(=O)(=O)Nc1cccc(-c2cc(F)ccc2CC(c2cccnc2)c2cccnc2)c1 | 6.24 | 42% |  |  |
